Experimental data published in the supplement of paper PMC10331698.
± gives the standard deviation of the averaged measurements.

How the values were obtained:
Test in all cases: level (log10 ratio to DMSO vehicle control); higher = higher biomarker level / cell amount than vehicle control
Settings in all cases: in DMSO
Octafluoroadipamide = compound: NC(=O)C(F)(F)C(F)(F)C(F)(F)C(F)(F)C(N)=O [Octafluoroadipamide]
Description: (§1)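 BioMAP Diversity Plus panel of 12 human primary cell co-culture systems (3C, 4H, LPS, SAg, BT, BF4T, BE3C, CASM3C, HDF3CGF, KF3CT, MyoF, Mphg). Compounds were added 1 h before stimulation and left for 24 h (MyoF 48 h; BT 72 h for soluble read-outs or 6 d for IgG). Biomarkers were read by ELISA, cytotoxicity by SRB, PBMC viability and proliferation by Alamar Blue. Each well value was divided by the mean of 8 DMSO control wells on the same plate and log10 transformed; duplicate blinded samples were tested at 4 concentrations.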

[1] = compound: FC(F)(F)C(F)(F)C(F)(F)C(F)(F)C(F)(F)C(F)(F)CC1CO1 [3-(Perfluorohexyl)-1,2-epoxypropane]
Description: as §1

[2] = compound: O=S(=O)(O)CCC(F)(F)C(F)(F)C(F)(F)C(F)(F)C(F)(F)C(F)(F)F [6:2 Fluorotelomer sulfonic acid]
Description: as §1

Heptafluorobutyl iodide = compound: FC(F)(F)C(F)(F)C(F)(F)CI [Heptafluorobutyl iodide]
Description: as §1

[3] = compound: O=S(=O)(F)C(F)(F)C(F)(F)C(F)(F)C(F)(F)C(F)(F)C(F)(F)C(F)(F)C(F)(F)F [Perfluorooctanesulfonyl fluoride]
Description: as §1

[4] = compound: O=S(=O)(Cl)C(F)(F)C(F)(F)C(F)(F)C(F)(F)C(F)(F)C(F)(F)C(F)(F)C(F)(F)F [Perfluoro-1-octanesulfonyl chloride]
Description: as §1

[5] = compound: FC(F)(F)C(F)(F)C(F)(F)C(F)(F)C(F)(F)C(F)(F)C(F)(F)I [1-Iodopentadecafluoroheptane]
Description: as §1

CASM3C:CXCL9/MIG
level (log10) (Octafluoroadipamide; 6700 nM): 0.0115 ± 0.053 | level (log10) (Octafluoroadipamide; 20000 nM): -0.004 ± 0.014 | level (log10) (Octafluoroadipamide; 60000 nM): 0.0215 ± 0.037 | level (log10) ([1]; 6700 nM): -0.014 ± 0.025 | level (log10) ([1]; 20000 nM): -0.007 ± 0.016 | level (log10) ([1]; 60000 nM): 0.0005 ± 0.026 | level (log10) ([2]; 6700 nM): -0.0445 ± 0.0078 | level (log10) ([2]; 20000 nM): -0.0315 ± 0.0035 | level (log10) ([2]; 60000 nM): -0.015 ± 0.045 | level (log10) (Heptafluorobutyl iodide; 6700 nM): -0.0295 ± 0.0021 | level (log10) (Heptafluorobutyl iodide; 20000 nM): -0.0225 ± 0.0021 | level (log10) (Heptafluorobutyl iodide; 60000 nM): -0.002 ± 0.038 | level (log10) ([3]; 6700 nM): -0.0025 ± 0.00071 | level (log10) ([3]; 20000 nM): 0.001 ± 0.0057 | level (log10) ([3]; 60000 nM): 0.0075 ± 0.011 | level (log10) ([4]; 6700 nM): 0.0015 ± 0.052 | level (log10) ([4]; 20000 nM): 0.013 ± 0.035 | level (log10) ([4]; 60000 nM): 0.0735 ± 0.033 | level (log10) ([5]; 6700 nM): -0.0165 ± 0.025 | level (log10) ([5]; 20000 nM): 0.018 ± 0.018

HDF3CGF:Proliferation 72hr
level (log10) (Octafluoroadipamide; 6700 nM): -0.041 ± 0.052 | level (log10) (Octafluoroadipamide; 20000 nM): 0.0825 ± 0.05 | level (log10) (Octafluoroadipamide; 60000 nM): -0.0115 ± 0.029 | level (log10) ([1]; 6700 nM): -0.014 ± 0.052 | level (log10) ([1]; 20000 nM): -0.0355 ± 0.049 | level (log10) ([1]; 60000 nM): 0 ± 0.069 | level (log10) ([2]; 6700 nM): 0.0015 ± 0.019 | level (log10) ([2]; 20000 nM): 0.0725 ± 0.03 | level (log10) ([2]; 60000 nM): 0.0405 ± 0.036 | level (log10) (Heptafluorobutyl iodide; 6700 nM): 0.0025 ± 0.0064 | level (log10) (Heptafluorobutyl iodide; 20000 nM): -0.012 ± 0.0099 | level (log10) (Heptafluorobutyl iodide; 60000 nM): -0.0085 ± 0.039 | level (log10) ([3]; 6700 nM): -0.0015 ± 0.057 | level (log10) ([3]; 20000 nM): 0.0385 ± 0.013 | level (log10) ([3]; 60000 nM): 0.03 ± 0.037 | level (log10) ([4]; 6700 nM): 0.126 ± 0.04 | level (log10) ([4]; 20000 nM): 0.155 ± 0.1 | level (log10) ([4]; 60000 nM): -0.0105 ± 0.0035 | level (log10) ([5]; 6700 nM): -0.0275 ± 0.005 | level (log10) ([5]; 20000 nM): -0.135 ± 0.02

KF3CT:CXCL9/MIG
level (log10) (Octafluoroadipamide; 6700 nM): 0.0075 ± 0.0064 | level (log10) (Octafluoroadipamide; 20000 nM): 0.0035 ± 0.005 | level (log10) (Octafluoroadipamide; 60000 nM): 0.0075 ± 0.005 | level (log10) ([1]; 6700 nM): 0 | level (log10) ([1]; 20000 nM): 0.01 ± 0.0057 | level (log10) ([1]; 60000 nM): 0.0115 ± 0.0021 | level (log10) ([2]; 6700 nM): 0.0005 ± 0.013 | level (log10) ([2]; 20000 nM): -0.0025 ± 0.022 | level (log10) ([2]; 60000 nM): 0.0005 ± 0.013 | level (log10) (Heptafluorobutyl iodide; 6700 nM): -0.005 ± 0.0014 | level (log10) (Heptafluorobutyl iodide; 20000 nM): -0.008 ± 0.013 | level (log10) (Heptafluorobutyl iodide; 60000 nM): -0.003 ± 0.0071 | level (log10) ([3]; 6700 nM): 0.007 ± 0.0057 | level (log10) ([3]; 20000 nM): -0.007 ± 0.0085 | level (log10) ([3]; 60000 nM): 0.006 ± 0.0085 | level (log10) ([4]; 6700 nM): -0.0045 ± 0.005 | level (log10) ([4]; 20000 nM): -0.002 ± 0.0057 | level (log10) ([4]; 60000 nM): 0.005 ± 0.0042 | level (log10) ([5]; 6700 nM): 0.0115 ± 0.022 | level (log10) ([5]; 20000 nM): 0.012 ± 0.014

KF3CT:CXCL8/IL-8
level (log10) (Octafluoroadipamide; 6700 nM): -0.005 | level (log10) (Octafluoroadipamide; 20000 nM): -0.0055 ± 0.0021 | level (log10) (Octafluoroadipamide; 60000 nM): 0.0095 ± 0.023 | level (log10) ([1]; 6700 nM): 0.012 ± 0.018 | level (log10) ([1]; 20000 nM): 0.0175 ± 0.022 | level (log10) ([1]; 60000 nM): 0.022 ± 0.0042 | level (log10) ([2]; 6700 nM): -0.0005 ± 0.035 | level (log10) ([2]; 20000 nM): -0.001 ± 0.027 | level (log10) ([2]; 60000 nM): -0.0455 ± 0.022 | level (log10) (Heptafluorobutyl iodide; 6700 nM): -0.0095 ± 0.00071 | level (log10) (Heptafluorobutyl iodide; 20000 nM): -0.0325 ± 0.005 | level (log10) (Heptafluorobutyl iodide; 60000 nM): -0.015 ± 0.016 | level (log10) ([3]; 6700 nM): 0.001 ± 0.028 | level (log10) ([3]; 20000 nM): 0.0005 ± 0.025 | level (log10) ([3]; 60000 nM): 0.007 ± 0.0071 | level (log10) ([4]; 6700 nM): 0.006 ± 0.0042 | level (log10) ([4]; 20000 nM): 0.0095 ± 0.016 | level (log10) ([4]; 60000 nM): 0.0615 ± 0.025 | level (log10) ([5]; 6700 nM): 0.0135 ± 0.0021 | level (log10) ([5]; 20000 nM): 0.014 ± 0.0028
